IC50 data for three compounds are collected here from BindingDB's records for doi:10.1016/j.bmc.2019.01.012 (University of Education, 2019).

A word on the IC50: it is the midpoint of a concentration-inhibition curve. Read a low IC50 as greater potency in that assay.

One assay deals with Cholinesterase (Homo sapiens, UniProt P06276). Put plainly: Inhibition of BuChE (unknown origin) using butyrylthiocholine bromide as substrate by Ellman method. For orientation: In Ellman's method for cholinesterases, released thiocholine reacts with DTNB.
Chain of Cholinesterase (P06276 whole entry): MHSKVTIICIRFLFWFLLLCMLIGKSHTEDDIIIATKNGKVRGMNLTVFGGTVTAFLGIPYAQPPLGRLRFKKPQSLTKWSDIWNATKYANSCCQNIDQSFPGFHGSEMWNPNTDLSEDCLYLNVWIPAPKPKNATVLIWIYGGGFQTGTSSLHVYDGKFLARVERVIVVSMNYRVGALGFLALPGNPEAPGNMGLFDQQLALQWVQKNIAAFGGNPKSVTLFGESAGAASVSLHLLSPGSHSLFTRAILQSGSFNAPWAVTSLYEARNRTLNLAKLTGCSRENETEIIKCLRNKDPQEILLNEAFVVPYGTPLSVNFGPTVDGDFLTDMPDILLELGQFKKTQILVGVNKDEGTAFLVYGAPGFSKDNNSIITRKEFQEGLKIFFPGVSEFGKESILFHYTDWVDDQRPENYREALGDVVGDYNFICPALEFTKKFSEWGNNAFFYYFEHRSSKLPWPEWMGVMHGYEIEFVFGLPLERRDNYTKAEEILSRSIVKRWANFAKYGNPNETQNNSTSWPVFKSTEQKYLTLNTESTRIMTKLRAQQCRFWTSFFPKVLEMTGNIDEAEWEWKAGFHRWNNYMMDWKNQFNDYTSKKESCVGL
A further assay deals with Acetylcholinesterase (Homo sapiens, UniProt P22303). Put plainly: Inhibition of AChE (unknown origin) using […] as substrate by Ellman method.
Chain of Acetylcholinesterase (P22303 whole entry): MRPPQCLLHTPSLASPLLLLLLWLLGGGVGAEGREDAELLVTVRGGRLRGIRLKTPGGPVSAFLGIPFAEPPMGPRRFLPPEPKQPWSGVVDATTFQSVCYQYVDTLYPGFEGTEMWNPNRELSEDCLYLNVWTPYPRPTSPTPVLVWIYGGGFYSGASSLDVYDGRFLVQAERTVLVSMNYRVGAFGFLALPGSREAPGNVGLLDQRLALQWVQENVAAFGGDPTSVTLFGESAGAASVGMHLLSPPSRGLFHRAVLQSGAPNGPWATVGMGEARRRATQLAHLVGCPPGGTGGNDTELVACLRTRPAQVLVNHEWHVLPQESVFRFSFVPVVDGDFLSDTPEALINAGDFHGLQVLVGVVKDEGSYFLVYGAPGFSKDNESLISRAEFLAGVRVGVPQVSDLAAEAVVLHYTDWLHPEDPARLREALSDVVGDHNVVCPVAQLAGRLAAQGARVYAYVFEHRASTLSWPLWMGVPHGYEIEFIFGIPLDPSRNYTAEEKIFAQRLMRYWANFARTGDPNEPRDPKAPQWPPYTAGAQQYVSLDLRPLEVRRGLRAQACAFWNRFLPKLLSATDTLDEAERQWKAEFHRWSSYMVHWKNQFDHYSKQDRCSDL

For `CC(C)Cc1ccc(C(C)C(=O)NS(=O)(=O)c2ccc(N)cc2)cc1` (stereo not given), the IC50 against Cholinesterase is 214 µM; against Acetylcholinesterase it was below 600 µM. `CC(C)Cc1ccc([C@H](C)C(=O)O)cc1` [(RS)-ibuprofen]: the IC50 on Cholinesterase was below 600 µM; at Acetylcholinesterase, 235 µM. Consider `Nc1ccc(S(N)(=O)=O)cc1` [aromatic sulfonamide compound 5], for which the midpoint of inhibition against Cholinesterase, the IC50, lay at 138 µM.
